Results as given in patent US20150119395A1, “NOVEL TRIAZOLE COMPOUNDS THAT MODULATE HSP90 ACTIVITY” (SYNTA PHARMACEUTICALS CORP., priority 2012, published 2015).

Tested on: Her2
Test: Degradation of Her2 in BT-474 cells, SDS-PAGE/immunoblot, Method 1
Type: cell-based, human
Conditions: 0.5 μM, overnight in DMEM medium
Procedure: BT-474 cells were treated with 0.5 μM, 2 μM, or 5 μM of 17AAG (a positive control) or 0.5 μM, 2 μM, or 5 μM of a compound of the invention overnight in DMEM medium. After treatment, each cytoplasmic sample was prepared from 1×10^6 cells by incubation of cell lysis buffer (#9803, Cell Signaling Technology) on ice for 10 minutes. The resulting supernatant used as the cytosol fractions was dissolved with sample buffer for SDS-PAGE and run on a SDS-PAGE gel, blotted onto a nitrocellulose membrane by using semi-dry transfer. Non-specific binding to nitrocellulose is blocked with 5% skim milk in TBS with 0.5% Tween at room temperature for 1 hour, then probed with anti-Her2/ErB2 mAb (rabbit IgG, #2242, Cell Signaling) and anti-Tubulin (T9026, Sigma) as housekeeping control protein. HRP-conjugated goat anti-rabbit IgG (H+L) and HRP-conjugated horse anti-mouse IgG (H+L) were used as secondary Ab (#7074, #7076, Cell Signaling) and LumiGLO reagent, 20× Peroxide (#7003, Cell Signaling) is used for visualization.
BT-474 cells were treated with 0.5 μM, 2 μM, or 5 μM of 17AAG (a positive control) or 0.5 μM, 2 μM, or 5 μM of a compound of the invention overnight in DMEM medium. After treatment, each cytoplasmic sample was prepared from 1×10^6 cells by incubation of cell lysis buffer (#9803, Cell Signaling Technology) on ice for 10 minutes. […]

Q: For `C=CCNC1=C2C[C@@H](C)C[C@H](OC)[C@H](O)[C@@H](C)/C=C(\C)[C@H](OC(N)=O)[C@@H](OC)/C=C\C=C(/C)C(=O)NC(=CC1=O)C2=O` [Compound 17AAG, 17-allylamino-17-demethoxygeldanamycin], which “Degradation of Her2 (Western blot)” value is on record?
A: partial degradation
